Assay results reported in patent publication US11998543B2, “Pharmaceutical composition comprising aldehyde inhibitor and anticancer agent for treatment of brain cancer” (Industry-Academic Cooperation Foundation, Yonsei University, priority 2018, dated 2024).

Experiments:
[1] = system: TS13-64 cells; test: WST cytotoxicity / cell viability assay (EZ-Cytox), 72 h drug treatment; format: cell-based, human; conditions: for Measured value (cell viability) / Value expressed relative to administration alone: TS13-64; for Measured value (cell viability): G and P 10 μM each; for Measured value (cell viability) / Cancer cell killing (cytotoxicity), comparison in words: 72 h; for Value expressed relative to administration alone: viability with anticancer drug alone set to 1; for Cancer cell killing (cytotoxicity), comparison in words: TS13-64 cells, compared with single agents or other combinations, PTX and 5-FU at high concentration (H) vs TMZ alone
Experimental: (§1) Cultured tumorsphere-forming glioblastoma cells (GBM TS) were seeded into 96-well plates at a density of 10^4 cells/well and treated for 72 hours with a drug-containing medium prepared in a Preparation Example (a control group was treated with general culture medium), and then cytotoxicity to the cancer cells was measured by WST assay using EZ-Cytox reagent (DoGenBio, Seoul, Korea) according to the manufacturer's protocol.
(§2) For the present disclosure, two types of tumorsphere (TS)-forming glioblastoma (GBM) cells were used. TS13-64 cells are primary tumor cells derived from a GBM patient, and established from a new GBM tissue sample under the approval of the Institutional Review Board of the Yonsei University College of Medicine (approval Nos: 4-2012-0212 and 4-2014-0649). As U87 cells, spherical cells prepared by culturing the U87MG cell line under TS culture conditions were used. For TS culture, cells were treated with DMEM/F-12 medium containing 2 wt % 1×B27, 0.02 wt % bFGF (20 ng/ml), 0.02 wt % EGF (20 ng/ml) and 50 U/ml penicillin/[…] streptomycin (100×, Gibco, Invitrogen Korea, Seoul, South Korea), and all in vitro experiments were performed under TS culture conditions.
(§3) For use in in vitro experiments, gossypol (G) and phenformin (P, Sigma-Aldrich) were dissolved in DMSO and H2O, respectively, at a concentration of 10 μM. The anticancer drug temozolomide (TMZ, Sigma-Aldrich) was dissolved in DMSO and used at a concentration of 250 μM. As controls for the anticancer drug TMZ for co-administration with gossypol and phenformin, other anticancer drugs, paclitaxel (PTX) and fluorouracil (5-FU), were used. […] That is, in the same manner as TMZ, paclitaxel was prepared and used at a low concentration of 2 nM and a high concentration of 5 nM, and fluorouracil was prepared and used at a low concentration of 50 μM and a high concentration of 100 μM (low concentration is indicated by L, and high concentration is indicated by H).
as §1, with “in the” for “in a”
(§4) Evaluation of cytotoxicity to cancer cells and the sphere-forming ability of cells was performed in the same manner as in Example 1.
(§5) In order to more easily compare these effects, the cell viability value obtained upon administration of each anticancer drug alone was set to 1, and the cell viability value obtained upon co-administration was expressed relative to the cell viability value obtained upon administration of each anticancer drug alone.

[2] = system: U87 cells; test: as above; format: cell-based; conditions: for Measured value (cell viability) / Value expressed relative to administration alone: U87; for Measured value (cell viability): G and P 10 μM each; for Measured value (cell viability) / Cancer cell killing (cytotoxicity), comparison in words: 72 h; for Value expressed relative to administration alone: viability with anticancer drug alone set to 1; for Cancer cell killing (cytotoxicity), comparison in words: spherical U87 cells, compared with single agents or other combinations, PTX and 5-FU at high concentration (H) vs TMZ alone
Experimental: as §1, §2, §3
as §1, with “in the” for “in a”
as §4, §5

[3] = high concentration (H): PTX 5 nM, 5-FU 100 μM
[4] = low concentration (L): PTX 2 nM, 5-FU 50 μM

Structure (SMILES)	Measured value (cell viability) [1, 3]	Value expressed relative to administration alone [1, 3]	Measured value (cell viability) [1, 4]	Value expressed relative to administration alone [1, 4]	Cancer cell killing (cytotoxicity), comparison in words [1]	Measured value (cell viability) [2, 3]	Value expressed relative to administration alone [2, 3]	Measured value (cell viability) [2, 4]	Value expressed relative to administration alone [2, 4]	Cancer cell killing (cytotoxicity), comparison in words [2]	Measured value (cell viability) ([1]; TMZ 250 μM)	Value expressed relative to administration alone ([1]; TMZ 250 μM)	Measured value (cell viability) ([2]; TMZ 250 μM)	Value expressed relative to administration alone ([2]; TMZ 250 μM)
O=c1[nH]cc(F)c(=O)[nH]1 [5FU, fluorouracil]	0.756	1.000	0.826	1.000	higher	0.804	1.000	0.980	1.000	higher				
CC(=O)O[C@H]1C(=O)[C@@]2(C)[C@H]([C@H](OC(=O)c3ccccc3)[C@]3(O)C[C@H](OC(=O)[C@H](O)[C@@H](NC(=O)c4ccccc4)c4ccccc4)C(C)=C1C3(C)C)[C@]1(OC(C)=O)CO[C@@H]1C[C@@H]2O [PTX, paclitaxel]	0.675	1.000	0.764	1.000	higher	0.720	1.000	0.947	1.000	higher				
Cn1nnc2c(C(N)=O)ncn2c1=O [TMZ, temozolomide]											0.781	1.000	0.879	1.000
